Reference: ChEMBL document CHEMBL4354807, “Natural Product Albiziabioside A Conjugated with Pyruvate Dehydrogenase Kinase Inhibitor Dichloroacetate To Induce Apoptosis-Ferroptosis-M2-TAMs Polarization for Combined Cancer Therapy” (J Med Chem, 2019)
Calls of active or inactive are those of the source. No cut-off for these calls is given here.

Key:
L02 = assay: Cytotoxicity against human LO2 cells assessed as reduction in cell viability after 72 hrs by MTT assay; format: cell-based; details: L02, 72 h
[1] = Toxicity in BALB/c nude mouse xenografted with human MCF7 cells assessed as effect on liver at 2 mg/kg, iv administered every 2 days for 2 weeks measured after 14 days by hematoxylin and eosin staining based histopathological analysis; format: organism-based; details: in vivo, 336 h
MCF7 [2] = assay: Induction of apoptosis in human MCF7 cells assessed as viable cells at 2 uM after 24 hrs by Annexin V-FITC/propidium iodide staining-based flow cytometric analysis (reference value: 93.39 %); format: functional; details: MCF7, 24 h, read-out: Activity
4T1 = assay: Induction of M2-TAM polarization in mouse 4T1 cells assessed as decrease in Arg1 mRNA expression at 2 uM after 48 hrs by Western blot analysis relative to control; format: functional
MCF7 [3] = assay: (§1) Induction of metabolic reversal from aerobic glycolysis to oxidative phosphorylation in human MCF7 cells assessed as effect on extracellular acidification rate at 2 uM pretreated for 4 hrs followed by glucose addition after 25 mins followed by subsequent addition of oligomycin A after 50 mins followed by 2-DG addition after 80 mins by seahorse XF24 extracellular flux analyzer assay; format: functional, cell-based
[4] = Toxicity in BALB/c nude mouse xenografted with human MCF7 cells assessed as effect on heart at 2 mg/kg, iv administered every 2 days for 2 weeks measured after 14 days by hematoxylin and eosin staining based histopathological analysis; format: organism-based; details: in vivo, 336 h
MCF7 [5] = assay: Induction of mitochondrial dysfunction in human MCF7 cells assessed as cell population with intact mitochondrial membrane potential at 2 uM after 24 hrs by JC1 staining-based FACScalibur flow cytometry analysis (reference value: 97%); format: functional
MCF7 [6] = assay: Induction of ferroptosis in human MCF7 cells assessed as cell death at 2 uM pretreated with ferroptosis inhibitor ferrostatin-1 followed by compound treatment by MTT assay; format: functional, cell-based
MCF7 [7] = assay: as §1, with “as decrease in oxygen consumption” for “as effect on extracellular acidification”, “for 6” for “for 4”, “by oligomycin A” for “by glucose”, “of FCCP” for “of oligomycin A”, “by antimycin/rotenone” for “by 2-DG”; format: functional, cell-based
[8] = Toxicity in BALB/c nude mouse xenografted with human MCF7 cells assessed as effect on AST level in blood at 2 mg/kg, iv administered every 2 days for 2 weeks measured after 14 days; format: organism-based; details: in vivo, 336 h
[9] = Toxicity in BALB/c nude mouse xenografted with human MCF7 cells assessed as effect on lung at 2 mg/kg, iv administered every 2 days for 2 weeks measured after 14 days by hematoxylin and eosin staining based histopathological analysis; format: organism-based; details: in vivo, 336 h

For `CC1(C)CC[C@]2(C(=O)O)CC[C@]3(C)C(=CC[C@@H]4[C@@]5(C)CC[C@H](O[C@@H]6O[C@H](CO[C@@H]7OC[C@H](O)[C@H](O)[C@H]7O)[C@@H](O)[C@H](O)[C@H]6NC(=O)C(Cl)Cl)C(C)(C)[C@@H]5CC[C@]43C)[C@@H]2C1`, the IC50 (L02) was 53.1 µM, the Activity [1] was “Non-Toxic” and the viability at 2 µM (MCF7 [2]) was 47%. For the same molecule, the “fold change (FC)” value (4T1) was 2.1, the Activity (MCF7 [3]) was “Active” and the Activity [4] was “Non-Toxic”. For the same molecule, the Activity (MCF7 [5]) was 53.38%, the Activity (MCF7 [6]) was “inactive” and the Activity (MCF7 [7]) was “Active”. For the same molecule, the Activity [8] was “Non-Toxic” and the Activity [9] was “Non-Toxic”.
